# According to patent US10604554B2, “Double-acylated GLP-1 derivatives” (Novo Nordisk A/S, priority 2012, dated 2020):
# Read-outs that look alike come from different tables or passages of the source.
# Experiments:
# human GLP-1 receptor [1] = target: T1, human GLP-1 receptor (Homo sapiens, UniProt P43220); assay: GLP-1 receptor binding (SPA, displacement of 125I-GLP-1); conditions: for IC50: 0.001% HSA (low albumin), read-out: Receptor binding affinity IC50 (low HSA)
# T1 construct: expressed in transfected cells; host or cells: BHK cells, clone FCW467-12A/KZ10-1 (parent line BHKTS13), further transfected with CRE luciferase
# T1 sequence (P43220 24-463): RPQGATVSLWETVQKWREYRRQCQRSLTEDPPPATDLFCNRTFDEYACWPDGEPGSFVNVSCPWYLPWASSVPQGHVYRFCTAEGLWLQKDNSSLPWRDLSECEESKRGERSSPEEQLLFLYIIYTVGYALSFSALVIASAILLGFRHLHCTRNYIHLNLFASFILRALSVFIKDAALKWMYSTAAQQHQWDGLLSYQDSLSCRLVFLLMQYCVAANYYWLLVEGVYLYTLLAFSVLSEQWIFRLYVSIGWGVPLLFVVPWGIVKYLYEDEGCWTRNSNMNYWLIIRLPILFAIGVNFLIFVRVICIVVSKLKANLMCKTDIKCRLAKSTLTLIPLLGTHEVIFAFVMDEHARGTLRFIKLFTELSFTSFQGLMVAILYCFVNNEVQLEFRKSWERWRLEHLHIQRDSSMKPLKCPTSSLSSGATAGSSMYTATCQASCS
# Procedure, shortened: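 Membranes from a stably transfected hamster cell line, 5-10 ug protein/sample, with WGA SPA beads and [125I]-GLP-1(7-36)NH2 at 0.06 nM final. Incubated 120 min at 30 °C with shaking, then counted.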
# human GLP-1 receptor [2] = target: T1, human GLP-1 receptor; assay: In vitro potency (CRE luciferase; whole cells); format: cell-based; design: EC50/pM (ratio 1% HSA/0% HSA): unit not given here; conditions: for EC50: BHK cells
# Procedure, shortened: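 Stably transfected BHK cells carrying human GLP-1R and a CRE–firefly luciferase reporter, 5×10^3 cells/well in assay medium, run with 0% or 1% HSA in assay buffer.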
# in vivo = conditions: male, Göttingen, minipig, iv
# [3] = 0% HSA, read-out: In vitro potency (CRE luciferase) EC50 (0% HSA)
# [4] = In vitro potency (CRE luciferase) EC50 (1% HSA), 1% HSA
SMILES,IC50 (human GLP-1 receptor [1]) [nM],EC50 (human GLP-1 receptor [2]; [3]) [nM],EC50 (human GLP-1 receptor [2]; [4]) [nM],half-life (in vivo) [h],"IC50 (high HSA) (human GLP-1 receptor [1]; Receptor binding affinity IC50 (high HSA), 2.0% HSA (high albumin), heading: Receptor binding affinity IC50) [nM]",EC50/pM (ratio 1% HSA/0% HSA) (human GLP-1 receptor [2]; ratio of EC50 at 1% HSA to EC50 at 0% HSA)
"CC[C@H](C)[C@H](NC(=O)[C@H](Cc1ccccc1)NC(=O)[C@H](CCC(=O)O)NC(=O)[C@H](CCCCNC(=O)[C@@H](N)CCCCNC(=O)COCCOCCNC(=O)COCCOCCNC(=O)CC[C@H](NC(=O)CCCCCCCCCCCCCCC(=O)O)C(=O)O)NC(=O)[C@H](C)NC(=O)[C@H](C)NC(=O)[C@H](CCC(N)=O)NC(=O)CNC(=O)[C@H](CCC(=O)O)NC(=O)[C@H](CC(C)C)NC(=O)[C@H](Cc1ccc(O)cc1)NC(=O)[C@H](CO)NC(=O)[C@H](CO)NC(=O)[C@@H](NC(=O)[C@H](CC(=O)O)NC(=O)[C@H](CO)NC(=O)[C@@H](NC(=O)[C@H](Cc1ccccc1)NC(=O)[C@@H](NC(=O)CNC(=O)[C@H](CCC(=O)O)NC(=O)C(C)(C)NC(=O)[C@@H](N)Cc1c[nH]cn1)[C@@H](C)O)[C@@H](C)O)C(C)C)C(=O)N[C@@H](C)C(=O)N[C@@H](Cc1c[nH]c2ccccc12)C(=O)N[C@@H](CC(C)C)C(=O)N[C@H](C(=O)N[C@@H](CCCNC(=N)N)C(=O)NCC(=O)N[C@@H](CCCNC(=N)N)C(=O)N[C@@H](CCCCNC(=O)[C@@H](N)CCCCNC(=O)COCCOCCNC(=O)COCCOCCNC(=O)CC[C@H](NC(=O)CCCCCCCCCCCCCCC(=O)O)C(=O)O)C(=O)O)C(C)C [Example 10, N^ε26-[(2S)-2-amino-6-[[2-[2-[2-[[2-[2-[2-[[(4S)-4-carboxy-4-(15-carboxypentadecanoylamino)butanoyl]amino]ethoxy]ethoxy]acetyl]amino]ethoxy]ethoxy]acetyl]amino]hexanoyl], N^ε37-[(2S)-2-amino-6-[[2-[2-[2-[[2-[2-[2-[[(4S)-4-carboxy-4-(15-carboxypentadecanoylamino)butanoyl]amino]ethoxy]ethoxy]acetyl]amino]ethoxy]ethoxy]acetyl]amino]hexanoyl]-[Aib^8,Arg^34,Lys^37]-GLP-1-(7-37)-peptide]",0.84,0.008,3.63,97,,
"CC[C@H](C)[C@H](NC(=O)[C@H](Cc1ccccc1)NC(=O)[C@H](CCC(=O)O)NC(=O)[C@H](CCCCNC(=O)[C@@H](N)CCCCNC(=O)[C@@H](N)CCCCNC(=O)CC[C@H](NC(=O)CC[C@H](NC(=O)CCCCCCCCCCCCCCC(=O)O)C(=O)O)C(=O)O)NC(=O)[C@H](C)NC(=O)[C@H](C)NC(=O)[C@H](CCC(N)=O)NC(=O)CNC(=O)[C@H](CCC(=O)O)NC(=O)[C@H](CC(C)C)NC(=O)[C@H](Cc1ccc(O)cc1)NC(=O)[C@H](CO)NC(=O)[C@H](CO)NC(=O)[C@@H](NC(=O)[C@H](CC(=O)O)NC(=O)[C@H](CO)NC(=O)[C@@H](NC(=O)[C@H](Cc1ccccc1)NC(=O)[C@@H](NC(=O)CNC(=O)[C@H](CCC(=O)O)NC(=O)C(C)(C)NC(=O)[C@@H](N)Cc1c[nH]cn1)[C@@H](C)O)[C@@H](C)O)C(C)C)C(=O)N[C@@H](C)C(=O)N[C@@H](Cc1c[nH]c2ccccc12)C(=O)N[C@@H](CC(C)C)C(=O)N[C@H](C(=O)N[C@@H](CCCNC(=N)N)C(=O)NCC(=O)N[C@@H](CCCNC(=N)N)C(=O)N[C@@H](CCCCNC(=O)[C@@H](N)CCCCNC(=O)[C@@H](N)CCCCNC(=O)CC[C@H](NC(=O)CC[C@H](NC(=O)CCCCCCCCCCCCCCC(=O)O)C(=O)O)C(=O)O)C(=O)O)C(C)C [Example 12, N^ε26-[(2S)-2-amino-6-[[(2S)-2-amino-6-[[(4S)-4-carboxy-4-[[(4S)-4-carboxy-4-(15-carboxypentadecanoylamino)butanoyl]amino]butanoyl]amino]hexanoyl]amino]hexanoyl], N^ε37-[(2S)-2-amino-6-[[(2S)-2-amino-6-[[(4S)-4-carboxy-4-[[(4S)-4-carboxy-4-(15-carboxypentadecanoylamino)butanoyl]amino]butanoyl]amino]hexanoyl]amino]hexanoyl]-[Aib^8,Arg^34, Lys^37]-GLP-1-(7-37)-peptide]",0.33,0.0055,1.15,109,222,194
